Laboratory results as given in US20240384268A1, “Oligonucleotides” (Hudson Institute of Medical Research, priority 2021, published 2024).
In the oligonucleotide strings, read from the 5' end, every base follows the letter of its sugar. An asterisk marks phosphorothioate; unmarked linkages are phosphodiester. Other units and linkages are bracketed, terminal groups are in braces. A string of capitals states the bases alone. d = 2'-deoxy (DNA); m = 2'-O-methyl

Molecular target: T1, human TLR9 (Homo sapiens, UniProt Q9NR96)
T1 construct: HA; host or cells: 293XL-hTLR9-HA (HEK293)
T1 sequence (Q9NR96 26-1032): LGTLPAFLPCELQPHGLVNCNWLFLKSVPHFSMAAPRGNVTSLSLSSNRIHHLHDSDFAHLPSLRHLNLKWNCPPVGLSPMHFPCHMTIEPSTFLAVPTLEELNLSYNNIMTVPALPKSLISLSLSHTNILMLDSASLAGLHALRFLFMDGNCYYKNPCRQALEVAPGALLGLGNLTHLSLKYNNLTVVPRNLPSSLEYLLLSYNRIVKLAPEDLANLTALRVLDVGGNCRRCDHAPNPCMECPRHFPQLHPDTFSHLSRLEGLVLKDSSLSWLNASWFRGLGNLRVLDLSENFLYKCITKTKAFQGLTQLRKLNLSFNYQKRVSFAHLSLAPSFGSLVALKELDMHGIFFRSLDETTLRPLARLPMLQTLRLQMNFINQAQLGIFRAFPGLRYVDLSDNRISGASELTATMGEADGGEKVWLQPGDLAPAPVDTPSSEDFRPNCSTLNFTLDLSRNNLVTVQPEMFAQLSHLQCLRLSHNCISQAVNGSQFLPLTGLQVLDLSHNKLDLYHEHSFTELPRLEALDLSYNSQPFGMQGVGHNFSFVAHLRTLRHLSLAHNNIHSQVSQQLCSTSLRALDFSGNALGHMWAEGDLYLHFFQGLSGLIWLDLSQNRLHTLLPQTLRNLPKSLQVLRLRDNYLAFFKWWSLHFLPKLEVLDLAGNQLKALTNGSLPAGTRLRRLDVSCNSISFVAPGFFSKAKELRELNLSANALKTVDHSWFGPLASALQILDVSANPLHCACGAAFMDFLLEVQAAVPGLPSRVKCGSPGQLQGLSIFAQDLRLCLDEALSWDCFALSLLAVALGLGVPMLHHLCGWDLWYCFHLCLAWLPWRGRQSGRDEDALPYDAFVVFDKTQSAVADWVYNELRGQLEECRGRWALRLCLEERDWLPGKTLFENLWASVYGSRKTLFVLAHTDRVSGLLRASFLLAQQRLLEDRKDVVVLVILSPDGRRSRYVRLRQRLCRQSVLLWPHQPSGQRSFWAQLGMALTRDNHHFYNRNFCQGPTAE
Experiment: HEK-TLR9 NF-κB-luciferase reporter, ODN2006 stimulation
Type: cell-based
Conditions: for TLR9 100 nM (averaged NF-κB-Luciferase level relative to ODN2006 condition): ASO 100 nM; for TLR9 100 nM (averaged NF-κB-Luciferase level relative to ODN2006 condition) / TLR9 500 nM (averaged NF-κB-Luciferase level relative to ODN2006 condition): relative to ODN2006 only, given as fraction; for TLR9 500 nM (averaged NF-κB-Luciferase level relative to ODN2006 condition): ASO 500 nM; for TLR9-500 nM: averaged NF-κB-Luciferase relative to ODN2006 / inhibition of TLR9 sensing of ODN2006 (in words): HEK-TLR9; for TLR9-500 nM: averaged NF-κB-Luciferase relative to ODN2006: 500 nM ASO 45 min, then 200 nM ODN2006 overnight, percentage of ODN2006 only; for inhibition of TLR9 sensing of ODN2006 (in words): 500 nM 2′OMe or PS oligos, 200 nM ODN2006

Substance | TLR9 100 nM (averaged NF-κB-Luciferase level relative to ODN2006 condition) | TLR9 500 nM (averaged NF-κB-Luciferase level relative to ODN2006 condition) | TLR9-500 nM: averaged NF-κB-Luciferase relative to ODN2006 | other results
TACTTTCCGAGGTGTC (antisense; LNA-modified, pattern not given here) [CAMSAP1-1739 LNA KL] | 0.915 | 0.356 | – | –
TCCACAATCAAGACAT (antisense; LNA-modified, pattern not given here) [HPRT LNA-551 KL] | 0.851 | 0.308 | – | –
TCCATACCCAAGGCAT (antisense; LNA-modified, pattern not given here) [CTNN2B-2446 LNA V1] | 1.075 | 0.951 | – | –
TCCGCCCAAAGGGAAC (antisense; LNA-modified, pattern not given here) [HPRT LNA-1027 KL] | 0.876 | 0.599 | – | –
TCCTTGCACGTGGCTT (antisense; LNA-modified, pattern not given here) [EGFR-1014 LNA V1] | 1.152 | 1.027 | – | –
TCGTGGGGTCCTTTTC (antisense; LNA-modified, pattern not given here) [HPRT LNA-660 V1] | 0.461 | 0.462 | – | –
TCTTCATCGGCCCTGC (antisense; LNA-modified, pattern not given here) [CAMSAP1-2112 LNA V1] | 0.921 | 0.445 | – | –
TCTTGGCTTCGTGGAG (antisense; LNA-modified, pattern not given here) [MB21D1-521 LNA V1] | 1.251 | 0.595 | – | –
TGACAAAGATTCACTG (antisense; LNA-modified, pattern not given here) [HPRT LNA-1353 KL] | 0.819 | 0.574 | – | –
TGACTGTCTTGAGGGT (antisense; LNA-modified, pattern not given here) [MB21D1-1483 LNA KL] | 1.245 | 0.290 | – | –
TGCTCCTCGGTCTCCC (antisense; LNA-modified, pattern not given here) [CAMSAP1-1850 LNA V1] | 0.548 | 0.535 | – | –
TGGTCCACAACCCCTT (antisense; LNA-modified, pattern not given here) [MB21D1-697 LNA V1] | 1.018 | 0.587 | – | –
TGGTGGCCACCCATCT (antisense; LNA-modified, pattern not given here) [CTNN2B-2479 LNA V1] | 1.136 | 1.117 | – | –
TGTCCTTGCACGTGGC (antisense; LNA-modified, pattern not given here) [EGFR-1016 LNA V1] | 1.020 | 0.853 | – | –
TGTCTGGAAGCTTCCT (antisense; LNA-modified, pattern not given here) [CTNN2B-808 LNA V1] | 1.320 | 0.648 | – | –
TTCAGGCGCTGCCTTG (antisense; LNA-modified, pattern not given here) [CAMSAP1-2709 LNA V1] | 1.202 | 0.494 | – | –
mA*mA*mA*mG*mC*A*G*T*C*T*C*C*A*T*G*mU*mC*mC*mC*mA (mA*mA*mA*mG*mC*dA*dG*dT*dC*dT*dC*dC*dA*dT*dG*mU*mC*mC*mC*mA; antisense) [[CDKN2B-AS1]2237] | – | – | 87.17% | –
mA*mA*mG*mC*mA*G*T*C*T*C*C*A*T*G*T*mC*mC*mC*mA*mG (mA*mA*mG*mC*mA*dG*dT*dC*dT*dC*dC*dA*dT*dG*dT*mC*mC*mC*mA*mG; antisense) [[CDKN2B-AS1]2236] | – | – | 69.71% | –
mA*mG*mC*mA*mG*T*C*T*C*C*A*T*G*T*C*mC*mC*mA*mG*mG (AGCAGTCTCCATGTCCCAGG; antisense; sugars from the 5' end m5 d10 m5, all phosphorothioate, methylation of C not given here) [[CDKN2B-AS1]2235] | – | – | 73.18% | –
mA*mG*mU*mC*mU*C*C*A*T*G*T*C*C*C*A*mG*mG*mC*mC*mU (mA*mG*mU*mC*mU*dC*dC*dA*dT*dG*dT*dC*dC*dC*dA*mG*mG*mC*mC*mU; antisense) [[CDKN2B-AS1]2232] | – | – | 122.20% | –
mA*mG*mU*mG*mG*C*A*C*A*T*A*C*C*A*C*mA*mC*mC*mC*mU (AGUGGCACATACCACACCCU; antisense; sugars from the 5' end m5 d10 m5, all phosphorothioate, methylation of C not given here) [[CDKN2B-AS1]495] | – | – | 86.07% | –
mA*mU*mU*mU*mC*C*A*C*A*T*G*C*C*C*A*mG*mU*mG*mU*mU (AUUUCCACATGCCCAGUGUU; antisense; sugars from the 5' end m5 d10 m5, all phosphorothioate, methylation of C not given here) [[CDKN2B-AS1]626] | – | – | 63.65% | –
mC*mA*mG*mU*mC*T*C*C*A*T*G*T*C*C*C*mA*mG*mG*mC*mC (mC*mA*mG*mU*mC*dT*dC*dC*dA*dT*dG*dT*dC*dC*dC*mA*mG*mG*mC*mC; antisense) [[CDKN2B-AS1]2233] | – | – | 55.13% | –
mC*mA*mG*mU*mG*T*T*T*T*T*A*A*T*T*T*mU*mG*mU*mA*mG (mC*mA*mG*mU*mG*dT*dT*dT*dT*dT*dA*dA*dT*dT*dT*mU*mG*mU*mA*mG; antisense) [[CDKN2B-AS1]613] | – | – | 92.59% | –
mC*mU*mU*mG*mU*G*A*A*A*A*G*A*T*T*A*mU*mC*mU*mU*mC (mC*mU*mU*mG*mU*dG*dA*dA*dA*dA*dG*dA*dT*dT*dA*mU*mC*mU*mU*mC) [[CDKN2B-AS1]2139] | – | – | 34.91% | inhibition of TLR9 sensing of ODN2006 (in words): strongly inhibited TLR9; inhibition of TLR9 sensing of ODN2006 (in words) (listed as ASO2139): significantly increased TLR9 inhibition
mG*mC*mA*mG*mU*C*T*C*C*A*T*G*T*C*C*mC*mA*mG*mG*mC (GCAGUCTCCATGTCCCAGGC; antisense; sugars from the 5' end m5 d10 m5, all phosphorothioate, methylation of C not given here) [[CDKN2B-AS1]2234] | – | – | 90.04% | inhibition of TLR9 sensing of ODN2006 (in words): did not inhibit TLR9
mG*mU*mC*mU*mC*C*A*T*G*T*C*C*C*A*G*mG*mC*mC*mU*mC (mG*mU*mC*mU*mC*dC*dA*dT*dG*dT*dC*dC*dC*dA*dG*mG*mC*mC*mU*mC) [[CDKN2B;AS1]2231] | – | – | 77.80% | –
mG*mU*mG*mU*mC*C*T*T*C*A*T*G*C*T*T*mU*mG*mG*mA*mU (GUGUCCTTCATGCTTUGGAU; antisense; sugars from the 5' end m5 d10 m5, all phosphorothioate, methylation of C not given here) [[CDKN2B-AS1]1415] | – | – | 98.99% | –
mG*mU*mG*mU*mU*T*T*T*A*A*T*T*T*T*G*mU*mA*mG*mA*mG (mG*mU*mG*mU*mU*dT*dT*dT*dA*dA*dT*dT*dT*dT*dG*mU*mA*mG*mA*mG) [[CDKN2B-AS1]611] | – | – | 98.50% | –
mU*mA*mU*mU*mU*C*C*A*C*A*T*G*C*C*C*mA*mG*mU*mG*mU (mU*mA*mU*mU*mU*dC*dC*dA*dC*dA*dT*dG*dC*dC*dC*mA*mG*mU*mG*mU; antisense) [[CDKN2B-AS1]627] | – | – | 71.20% | –
